Data from PubChem BioAssay AID330 (DTP/NCI, 2004).
“And” between values parts separate entries of the source, which are not always exact repeats. Equal entries are not always repeated. Toxic doses and inconclusive results are not listed. Rule for the calls: active = survival T/C of 150% or more; inactive = T/C below 125% in these data.

Tested on: P388 leukemia ip, CD2F1 mice, survival T/C
Assay: NCI In Vivo Anticancer Drug Screen. Data for tumor model P388 Leukemia (intraperitoneal) in CD2F1 (CDF1) mice
Conditions: endpoint: median survival time, higher = longer survival
Method in brief: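 Mice carrying the transplanted tumor received test compound or vehicle. Survival was recorded in each group, and the value is the treated-group measurement divided by that of the vehicle-treated control group.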

[1] = dose: 50.0 mg/kg/injection, schedule: Q01DX005 (ip), vehicle: Klucel (hydroxypropylcellulose) (HPC)
[2] = dose: 100.0 mg/kg/injection, schedule: Q01DX005 (ip), vehicle: Klucel (hydroxypropylcellulose) (HPC)
[3] = dose: 60.0 mg/kg/injection, schedule: Q01DX005 (ip), vehicle: saline with Tween-80
[4] = dose: 120.0 mg/kg/injection, schedule: Q01DX005 (ip), vehicle: saline with Tween-80
[5] = dose: 240.0 mg/kg/injection, schedule: Q01DX005 (ip), vehicle: saline with Tween-80
[6] = dose: 50.0 mg/kg/injection, schedule: Q01DX009 (ip), vehicle: Klucel (hydroxypropylcellulose) (HPC)
[7] = dose: 100.0 mg/kg/injection, schedule: Q01DX009 (ip), vehicle: Klucel (hydroxypropylcellulose) (HPC)
[8] = dose: 200.0 mg/kg/injection, schedule: Q01DX009 (ip), vehicle: Klucel (hydroxypropylcellulose) (HPC)
[9] = dose: 50.0 mg/kg/injection, schedule: Q01DX005 (ip), vehicle: saline with Tween-80
[10] = dose: 100.0 mg/kg/injection, schedule: Q01DX005 (ip), vehicle: saline with Tween-80
[11] = dose: 200.0 mg/kg/injection, schedule: Q01DX005 (ip), vehicle: saline with Tween-80
[12] = dose: 12.5 mg/kg/injection, schedule: Q01DX009 (ip), vehicle: saline
[13] = dose: 25.0 mg/kg/injection, schedule: Q01DX009 (ip), vehicle: saline
[14] = dose: 25.0 mg/kg/injection, schedule: Q01DX009 (ip), vehicle: saline with Tween-80
[15] = dose: 50.0 mg/kg/injection, schedule: Q01DX009 (ip), vehicle: saline with Tween-80
[16] = dose: 100.0 mg/kg/injection, schedule: Q01DX009 (ip), vehicle: saline with Tween-80
[17] = dose: 200.0 mg/kg/injection, schedule: Q01DX009 (ip), vehicle: saline with Tween-80
[18] = dose: 400.0 mg/kg/injection, schedule: Q01DX009 (ip), vehicle: saline with Tween-80

Measured: T/C

CC1(n2[nH]c(=O)n(-c3ccccc3)c2=O)Cn2c(=O)n(-c3ccccc3)c(=O)n2-c2ccccc21 (stereo not drawn)
inactive: [1] 101 % of control | [2] 96 % of control | dose: 200.0 mg/kg/injection, schedule: Q01DX005 (ip), vehicle: Klucel (hydroxypropylcellulose) (HPC) 108 % of control

Cc1ccc(N2C(=O)C3CSCN3C2=O)cc1 (stereo not drawn)
inactive: [3] 101 % of control | [4] 97 % of control | [5] 92 % of control

N#CC(Cc1ccc(Cl)cc1)c1ccccc1 (stereo not drawn)
inactive: [6] 89 % of control | [7] 95 % of control | [8] 96 % of control

O=S1(=O)CCN(C2CCS(=O)(=O)C2)CC1 (stereo not drawn)
inactive: [6] 90 % of control | [7] 99 % of control | [8] 90 % of control

N=C(N)c1ccc2nc(/C=C\c3nc4ccc(C(=N)N)cc4[nH]3)[nH]c2c1
inactive: dose: 100.0 mg/kg/injection, schedule: Q04DX002 (ip), vehicle: saline 110 % of control | dose: 200.0 mg/kg/injection, schedule: Q04DX002 (ip), vehicle: saline 117 % of control

COc1nc(Nc2ccc(/C=C/c3ccc(Nc4nc(OC)nc(N(CCO)CCO)n4)cc3S(=O)(=O)O)c(S(=O)(=O)O)c2)nc(N(CCO)CCO)n1
inactive: dose: 100.0 mg/kg/injection, schedule: Q04DX003 (ip), vehicle: saline 98 % of control | dose: 200.0 mg/kg/injection, schedule: Q04DX003 (ip), vehicle: saline 98 % of control | dose: 400.0 mg/kg/injection, schedule: Q04DX003 (ip), vehicle: saline 103 % of control

c1ccc(C(=C2CCCCC2)c2ccccc2)cc1
inactive: [9] 100 % of control | [10] 100 % of control | [11] 98 % of control

COC(=O)C(CO)NC(=O)OCc1ccccc1 (stereo not drawn)
inactive: dose: 25.0 mg/kg/injection, schedule: Q01DX005 (ip), vehicle: water 99 % of control | dose: 50.0 mg/kg/injection, schedule: Q01DX005 (ip), vehicle: water 94 % of control | dose: 50.0 mg/kg/injection, schedule: Q01DX009 (ip), vehicle: distilled water + alcohol 95 % of control | dose: 100.0 mg/kg/injection, schedule: Q01DX005 (ip), vehicle: water 105 % of control | dose: 100.0 mg/kg/injection, schedule: Q01DX009 (ip), vehicle: distilled water + alcohol 98 % of control | dose: 200.0 mg/kg/injection, schedule: Q01DX005 (ip), vehicle: water 99 % of control | dose: 200.0 mg/kg/injection, schedule: Q01DX009 (ip), vehicle: distilled water + alcohol 100 % of control | dose: 400.0 mg/kg/injection, schedule: Q01DX009 (ip), vehicle: distilled water + alcohol 96 % of control

Cn1c(-c2nc3ccccc3n2C)nc2ccccc21
inactive: [9] 102 % of control | [10] 98 % of control | [11] 102 % of control

CCSCC1C(=O)C23CC1CCC2C12COC(O)C1C(C)(C)C(O)CC2OC3=O (stereo not drawn)
inactive: dose: 3.12 mg/kg/injection, schedule: Q01DX009 (ip), vehicle: Klucel (hydroxypropylcellulose) (HPC) 103 % of control | dose: 6.25 mg/kg/injection, schedule: Q01DX009 (ip), vehicle: Klucel (hydroxypropylcellulose) (HPC) 107 % of control | dose: 12.5 mg/kg/injection, schedule: Q01DX009 (ip), vehicle: Klucel (hydroxypropylcellulose) (HPC) 103 % of control | [6] 109 % of control | [7] 107 % of control

NC(=O)Cc1[nH]ccc1C(=O)O
inactive: dose: 100.0 mg/kg/injection, schedule: Q01DX001 (ip), vehicle: saline with Tween-80 103 % of control | dose: 200.0 mg/kg/injection, schedule: Q01DX001 (ip), vehicle: saline with Tween-80 97 % of control | dose: 400.0 mg/kg/injection, schedule: Q01DX001 (ip), vehicle: saline with Tween-80 97 % of control

O=CC1CO1 (stereo not drawn)
inactive: [12] 109 % of control | dose: 12.5 mg/kg/injection, schedule: Q04DX003 (ip), vehicle: saline 112 % of control | [13] 118 % of control | dose: 25.0 mg/kg/injection, schedule: Q04DX003 (ip), vehicle: saline 104 % of control | dose: 50.0 mg/kg/injection, schedule: Q04DX003 (ip), vehicle: saline 116 % of control

Cc1nc2ccccc2c(=O)n1-c1nc2ccccc2s1
inactive: [3] 92 % of control | [4] 89 % of control and 90 % of control | [5] 103 % of control

CC=C(C)c1ccccc1 (mixture of isomers)
inactive: [14] 104 % of control | [15] 100 % of control | [16] 103 % of control | [17] 105 % of control

COc1cc(N2C(N)=NC(N)=NC2(C)C)cc(OC)c1OC
inactive: dose: 6.25 mg/kg/injection, schedule: Q01DX009 (ip), vehicle: saline 100 % of control | [12] 95 % of control | [13] 90 % of control

COC(=O)CCC1=C(C)c2cc3[n-]c(cc4nc(cc5[n-]c(cc1n2)c(CCC(=O)OC)c5C)C=C4C)cc3C.[Ni+2]
inactive: [16] 90 % of control | [17] 90 % of control | [18] 86 % of control

CCCCCCCCCCCCCCCCCC(=O)N[C@@H](Cc1ccc(N(CCCl)CCCl)cc1)C(=O)NCCCCCC
inactive: dose: 2.12 mg/kg/injection, schedule: Q01DX009 (ip), vehicle: saline 109 % of control | dose: 2.12 mg/kg/injection, schedule: Q03HX008 (ip), vehicle: saline 90 % of control | dose: 4.24 mg/kg/injection, schedule: Q01DX009 (ip), vehicle: saline 113 % of control | dose: 4.24 mg/kg/injection, schedule: Q03HX008 (ip), vehicle: saline 100 % of control | dose: 8.48 mg/kg/injection, schedule: Q03HX008 (ip), vehicle: saline 100 % of control | dose: 16.95 mg/kg/injection, schedule: Q03HX008 (ip), vehicle: saline 100 % of control | dose: 33.9 mg/kg/injection, schedule: Q03HX008 (ip), vehicle: saline 90 % of control | dose: 67.8 mg/kg/injection, schedule: Q03HX008 (ip), vehicle: saline 90 % of control

CCCCCCCCCCCCCCCC(=O)N(CCCCN(CCCN(C)C)C(=O)CCCCCCCCCCCCCCC)CCCN(C)C
inactive: dose: 12.5 mg/kg/injection, schedule: Q01DX009 (ip), vehicle: saline with Tween-80 90 % of control | [14] 90 % of control

O=[N+]([O-])c1ccc(-c2nc3ccncc3[nH]2)cc1
inactive: dose: 50.0 mg/kg/injection, schedule: Q01DX009 (ip), vehicle: saline 107 % of control | dose: 100.0 mg/kg/injection, schedule: Q01DX009 (ip), vehicle: saline 104 % of control | dose: 200.0 mg/kg/injection, schedule: Q01DX009 (ip), vehicle: saline 93 % of control

O=C(NC(CSSCC(NC(=O)c1ccccc1)C(=O)O)C(=O)O)c1ccccc1 (stereo not drawn)
inactive: [15] 109 % of control | [16] 90 % of control | [17] 101 % of control | [18] 93 % of control

Cn1nc([N+](=O)[O-])nc1-c1ccccc1
inactive: [15] 106 % of control | [16] 98 % of control | [17] 107 % of control | [18] 107 % of control

O=C(Nc1ccccc1)/C(Cl)=C1/Sc2ccccc2NC1=O
inactive: [3] 104 % of control | [4] 107 % of control | [5] 99 % of control

O=C(Nc1cccc(C(F)(F)F)c1)OC1CC2CC1C1CC3OC3C21 (stereo not drawn)
inactive: [1] 93 % of control | [2] 87 % of control
